How the values were obtained:
Prototheca wickerhamii = test: Compound was tested for inactivation of sterol methyl transferase( SMT) enzyme in Prototheca wickerhamii
[1] = Compound was tested for inactivation of sterol methyl transferase (SMT) enzyme in Prototheca wickerhamii

`C=C/C(C)=C/CC[C@@H](C)C1CC[C@@]2(C)C3CCC4C(C)(C)C(O)CCC45CC35CCC12C` (some centres not stated) showed a K inact (Prototheca wickerhamii) of 0.3 min⁻¹ and a Ki [1] of 30 µM.
